Like-named read-outs stand apart in the source and are kept apart here.
Legend:
[1] = target: T1, NKAα1 (Rattus norvegicus, UniProt P06685); test: Na,K-ATPase activity assay, α1β1 expressed in Sf9 insect cells; format: biochemical; settings: read-out: NKA Isoform Specificity (IC50 M) NKAα1
T1 construct: made in house; host or cells: Sf9 insect cells (baculovirus infection), cell homogenates
Procedure: (§1) The NKA α1 and α4 isoforms were expressed in Sf9 insect cells as previously described. Briefly, cells were cultured in suspension at 27 °C in Grace’s medium (JRH Biosciences, Lenexa, KS, USA) with 3.3 g/L of lactalbumin hydrolysate and 3.3 g/L of yeastolate and supplemented with 10% (v/v) fetal bovine serum, 100 units/mL of penicillin, 100 μg/mL of streptomycin, and 0.25 μg/mL of fungizone. For infections, cells were placed on 150 mm Petri dishes and infected with baculoviruses coding for the NKA α1β1 and α4β1 isozymes. Three days after infection, cells were scraped from the culture plates, centrifuged at 1500× g for 10 min, and washed twice in 10 mM imidazole hydrochloride (pH 7.5) and 1 mM EGTA (suspension buffer). Cells were then placed in a suspension buffer plus the addition of 0.32 M sucrose and stored at −20 °C or directly used for assays.
The Na,K-ATPase activity of insect cell homogenates was determined by measuring the initial rate of release of ^32Pi from γ[^32P]-ATP as described. […] Enzymatic activity was determined as the difference in ATP hydrolysis in the absence and presence of 1 mM ouabain.
Figure 6 Selectivity of 13 and 45 on NKAα4 over the NKAα1 isoform. […] The hydrolysis of ATP in the presence of saturating concentrations of Na^+, K^+, and Mg^2+ was measured using γ[^32P]-ATP. […]

[2] = target: T2, NKAα4 (Rattus norvegicus, UniProt Q64541); test: Na,K-ATPase activity assay, α4β1 expressed in Sf9 insect cells; format: biochemical
T2 construct: made in house; host or cells: Sf9 insect cells (baculovirus infection), cell homogenates
Procedure: as §1
The Na,K-ATPase activity of insect cell homogenates was determined by measuring the initial rate of release of ^32Pi from γ[^32P]-ATP as described. The incubation medium (0.25 mL final volume) contained 120 mM NaCl, 30 mM KCl, 3 mM MgCl2, 0.2 mM EGTA, 30 mM Tris-HCl (pH 7.4), and different concentrations of the corresponding compounds. The assay was started by the addition of ATP with 0.2 μCi γ[^32P]-ATP (2 mM final concentration). After 30 min of incubation at 37 °C, the reaction was stopped with trichloroacetic acid, and 5% ammonium molybdate in 4 N H2SO4 was used to complex the ^32Pi released in the Na,K-ATPase reaction. The phosphomolybdate was extracted with isobutanol as described, and 170 μL of the organic phase was taken and subjected to liquid scintillation counting. Enzymatic activity was determined as the difference in ATP hydrolysis in the absence and presence of 1 mM ouabain.
Figure 6 Selectivity of 13 and 45 on NKAα4 over the NKAα1 isoform. […] The hydrolysis of ATP in the presence of saturating concentrations of Na^+, K^+, and Mg^2+ was measured using γ[^32P]-ATP. The curves represent the best fit of the experimental data to a single population of binding sites. Each value is the mean ± SEM of three independent experiments.

[3] = tested on: mouse sperm; test: Sperm viability (Live/Dead assay); format: cell-based; settings: 10 µM, one hour
Procedure: To assess whether 13 and 45 affected sperm viability, we treated mouse sperm with the compounds for one hour at 10 µM and determined the number of live and dead cells in the sample.
Figure 5 Cell viability after treatment with compounds 13 and 45. Mouse caudal epididymal sperm was subjected to a medium not supporting capacitation to 10 µM of 13 and 45. After one hour, sperm was subjected to the Live/Dead assay as per the manufacturer’s recommendations. Cells were counted as viable/non-viable and expressed as the mean ± SEM of three determinations.

[4] = tested on: Caco-2 cells; test: Caco-2 cell permeability; format: in vitro ADME, human; settings: Caco-2 cell line
Procedure: (§2) The in vitro permeability and potential to be transported by P-gp (P-glycoprotein) were determined in a Caco-2 or MDCK cell line. Values are reported for a mass recovery > 60%. The efflux ratio was determined as follows: P^app(B-A)/Papp(A-B). The experimental details are reported in the Supporting Information (Tables S2–S5).
(§3) The recovery can be determined using the following equation:
(§4) Recovery%=(VA×[drug]acceptor+VD×[drug]donor)/(VD×[drug]initial, donor)
(§5) Where VA is the volume (in mL) in the acceptor well (0.235 mL for Ap→Bl flux, and 0.075 mL for
(§6) Bl→Ap), VD is the volume (in mL) in the donor well (0.075 mL for Ap→Bl flux, and 0.235 mL for
(§7) The leakage of Lucifer Yellow, in unit of percentage (%), can be calculated using the following
(§8) %LY leakage = 100×[LY]acceptor×0.3/([LY]donor×0.1+[LY]acceptor×0.3)
(§9) LY leakage of <1% is acceptable to indicate the well-qualified MDCK/ Caco-2 monolayer.
(§10) Table S5 . The Assessment of Caco-2 Cell Monolayer Integrity
(§11) The apparent permeability coefficient (Papp), Efflux ratio (ER), recovery percentage, and LY leakage percentage can be
(§12) calculated for Caco-2 Cell drug transport assays using the above equations. […]

[5] = Caco-2 cell permeability; format: in vitro ADME, human; settings: human
Procedure: as §2, §3, §4, §5, §6, §7, §8, §9, §10, §11, §12

[6] = tested on: human hepatocytes; test: Metabolic stability in human hepatocytes; format: in vitro ADME
Procedure: (§13) The in vitro metabolic half-life (t1/2) is calculated using the slope of the log−linear regression from the percentage of the parent compound remaining versus the time relationship (κ). The experimental details are reported in the Supporting Information (Tables S6 and S7).

[7] = Metabolic stability in human hepatocytes; format: in vitro ADME; settings: human hepatocytes
Procedure: as §13

[8] = α4β1 in Sf9 insect cells, ± SEM of three experiments

T2 sequence (Q64541 whole entry, other chains not shown): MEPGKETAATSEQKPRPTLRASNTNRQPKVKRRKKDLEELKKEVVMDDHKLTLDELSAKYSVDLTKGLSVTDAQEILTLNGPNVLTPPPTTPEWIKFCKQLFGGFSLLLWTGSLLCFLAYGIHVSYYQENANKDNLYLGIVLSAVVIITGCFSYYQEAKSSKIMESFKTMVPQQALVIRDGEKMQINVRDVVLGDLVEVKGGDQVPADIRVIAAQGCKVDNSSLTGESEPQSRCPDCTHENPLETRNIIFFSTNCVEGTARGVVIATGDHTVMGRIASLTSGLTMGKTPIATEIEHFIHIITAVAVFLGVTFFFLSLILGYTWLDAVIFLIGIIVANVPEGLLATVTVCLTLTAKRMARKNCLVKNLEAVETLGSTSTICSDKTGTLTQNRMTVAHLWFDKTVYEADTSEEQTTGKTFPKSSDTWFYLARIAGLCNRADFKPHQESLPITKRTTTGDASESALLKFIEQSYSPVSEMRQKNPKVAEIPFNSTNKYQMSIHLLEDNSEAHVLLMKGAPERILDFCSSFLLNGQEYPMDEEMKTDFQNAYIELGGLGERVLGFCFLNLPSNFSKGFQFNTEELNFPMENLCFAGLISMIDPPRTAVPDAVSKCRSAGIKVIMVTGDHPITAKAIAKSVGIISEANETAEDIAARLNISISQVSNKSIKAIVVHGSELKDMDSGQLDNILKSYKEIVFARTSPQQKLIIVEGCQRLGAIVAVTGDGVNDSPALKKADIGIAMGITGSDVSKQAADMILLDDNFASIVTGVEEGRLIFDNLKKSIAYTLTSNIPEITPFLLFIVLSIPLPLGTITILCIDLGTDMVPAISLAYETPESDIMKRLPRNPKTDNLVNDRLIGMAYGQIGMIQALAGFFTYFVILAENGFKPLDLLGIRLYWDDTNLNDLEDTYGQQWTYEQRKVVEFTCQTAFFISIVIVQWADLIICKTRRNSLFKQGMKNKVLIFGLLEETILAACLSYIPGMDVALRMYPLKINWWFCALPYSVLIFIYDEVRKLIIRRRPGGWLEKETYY

## C[C@]12CC[C@H]3[C@@H](CC=C4C[C@@H](O)CC[C@@]43C)[C@@H]1CC[C@@H]2c1cn(Cc2ccccc2)nn1 [Compound 13, (3S,8S,9S,10R,13S,14S,17S)-17-(1-Benzyl-1H-1,2,3-triazol-4-yl)-10,13-dimethyl-2,3,4,7,8,9,10,11,12,13,14,15,16,17-tetradecahydro-1H-cyclopenta[a]phenanthren-3-ol]
[1]
  IC50: > 100000 nM
[2]
  IC50: 0.1 nM
[2]; [8]
  NKA Isoform Specificity (IC50 M) NKAα4: nanomolar range
[3]
  Sperm viability: the same as that of the untreated controls

## CC12CCC(=O)C=C1CCCC2n1cc(-c2ccccc2)nn1 (stereo not drawn) [Compound 45, 4a-Methyl-5-(4-phenyl-1H-1,2,3-triazol-1-yl)-4,4a,5,6,7,8-hexahydronaphthalen-2(3H)-one]
[4]
  Permeability Papp (A-B): good
[5]; Caco-2, Caco-2 cell line, read-out: Permeability Papp (A-B)
  Papp A→B: 24 ×10⁻⁶ cm/s
[5]; Caco-2, Caco-2 cells, read-out: Papp (A-B)
  Papp A→B: 24 ×10⁻⁶ cm/s
[5]; Caco-2, Caco-2 cells, read-out: Recovery (%) AP-BL
  recovery: 64.3%
[5]; Caco-2, Caco-2 cells, read-out: Recovery (%) BL-AP
  recovery: 77.9%
[5]; Caco-2 cells
  Papp B→A: 11.8 ×10⁻⁶ cm/s
[5]; Caco-2 cells, Papp(B-A)/Papp(A-B)
  efflux ratio: 0.49
[1]
  IC50: > 100000 nM
[2]; [8]
  NKA Isoform Specificity (IC50 M) NKAα4: nanomolar range
[2]; α4β1 in Sf9 insect cells, ± SEM of three experiments, read-out: NKA Isoform Specificity (IC50 M) NKAα4
  IC50: 2.7 nM
[6]; human boiled hepatocytes, 0 min
  Remaining Percentage (%): 100.00%
[6]; human boiled hepatocytes, 15 min
  Remaining Percentage (%): 105.47%
[6]; human boiled hepatocytes, 30 min
  Remaining Percentage (%): 106.55%
[6]; human boiled hepatocytes, 60 min
  Remaining Percentage (%): 108.22%
[6]; human boiled hepatocytes, 90 min
  Remaining Percentage (%): 105.29%
[6]; human boiled hepatocytes, 120 min
  Remaining Percentage (%): 107.99%
[6]; human hepatocytes
  Hepatic Extraction Ratio (E): 0.82
  Predicted hepatic CL: 16.89 mL/min/kg
[6]; human hepatocytes, 0 min
  Remaining Percentage (%): 100.00%
[6]; human hepatocytes, 15 min
  Remaining Percentage (%): 83.47%
[6]; human hepatocytes, 30 min
  Remaining Percentage (%): 64.22%
[6]; human hepatocytes, 60 min
  Remaining Percentage (%): 39.26%
[6]; human hepatocytes, 90 min
  Remaining Percentage (%): 22.24%
[6]; human hepatocytes, 120 min
  Remaining Percentage (%): 11.51%
[6]; human, 60 min
  Metabolic Stability in Hepatocytes (60 min), compound remaining: 39%
[7]; read-out: In vitro Clint
  hepatocyte CLint at 1 μM: 36 µL/min/1e6 cells
[7]; read-out: Scale-up Clint
  CLint scaled at 1 µM: 91.7 mL/min/kg
[7]; human, hepatocytes, read-out: In vitro T1/2
  half-life at 1 µM: 38.5 min
[3]
  Sperm viability: the same as that of the untreated controls
